Consider two compounds from article PMC11476552, “Synthesis and Preliminary Studies for In Vitro Biological Activity of Two New Water-Soluble Bis(thio)carbohydrazones and Their Copper(II) and Zinc(II) Complexes” (International Journal of Molecular Sciences, 2024).

Molecules are shown by their SMILES.

The nature of data set [1]: Cu(II) complex formation equilibria, spectrophotometric titration at pH 2.5. The class given is physicochemical. Particulars: conditional formation constant, aqueous solution, pH = 2.5, T = 298.2 K. An excerpt:
The copper(II) complexation equilibria of bis-TCH were studied by means of spectrophotometric titration of the ligand with Cu(II) in aqueous solution at pH = 2.5 and pH = 7.4. […] For this reason, in the speciation models, L identifies the ligand irrespective of its protonation state, and the charges of the complexes are omitted. […] The two bands at 237 and 318 nm, observed in the spectrum of the free ligand, decrease in absorbance upon addition of Cu(II), while the two bands at 259 and 400 nm increase.
A plot of absorbance at 280 nm vs. Cu(II)/ligand molar ratio (Figure 3, inset) quite clearly evidenced that two equivalence points are present: one at ca. 0.75 eq. and one at ca. 1.5 eq. of metal added, corresponding to the formation of [Cu3L4] and [Cu3L2] species. […] The [Cu3L4] species could have a simple structural explanation considering some peculiar characters of bis-TCH. This ligand, in fact, adds to the coordinating possibilities of the central skeleton (ONSNO) two sulfonic groups, which are deprotonated, such that they can also behave as counteranions. Moreover, both the ligands have a great affinity for Cu(II) ions, but bis-TCH is more acidic than bis-CH, and this implies that it more stably coordinates Cu(II) already at pH 2.5. It will be seen further in the discussion that in the case of bis-CH at pH = 2.5, the [CuL] species is identified, while, at the same pH, bis-TCH is able to compete more efficiently for the Cu(II) ions in solution, and the result is [Cu3L4], a species with a higher ligand/metal ratio (Figure S19).
The copper(II) complexation equilibria of bis-CH were studied by means of spectrophotometric titration at pH = 2.5 and 7.4. […] The best fit of the spectrophotometric data was obtained by considering the formation of [CuL] and [Cu2L] species, with log β values of 6.26(2) and 11.30(2), respectively (Table 2).
Samples used for the study of protonation equilibria of the ligands were prepared as follows. […] For each solution, the absorption spectrum was collected in the 220–600 nm range at 298.2 K. The spectral data collection was carried out immediately after the preparation of the samples and repeated after 3 and 10 min for all the samples at different pH values to check the stability of the ligand. […]
(§1) The logarithms of the apparent stability constants were calculated from the spectral dataset using HypSpec2014 software. […] All equilibria were studied at fixed pH, and therefore the determined log β values are logarithms of conditional formation constants. […] Speciation diagrams were calculated using the Hyss2009 software. […]

Data set [2] in a line: Zn(II) complex formation equilibria, spectrophotometric titration at pH 7.4. Particulars: for Log β([Zn2L]) / Log β([ZnL]): conditional formation constant, aqueous 25 mM HEPES buffer, pH 7.4, 25 °C. The class given is physicochemical.
Description: The best fit was obtained using a speciation model that consists of the sequential formation of a monometallic [ZnL] and a bimetallic [Zn2L] species. In fact, two families of spectra were observed, according to the presence in solution of two complex species and the free ligand. The first family of spectra (Zn/L = 0–1) (Figure S25) is characterized by a decrease in intensity for the bands of the free ligand at 239, 315, and 450 nm, and the appearance of bands at 251 and 394 nm. There are four isosbestic points at 245, 280, 371, and 429 nm. The second family of spectra (Zn/L = 1–2) (Figure S26) presents redshift and increase in absorbance of the band at 251 nm, the disappearance of the band at 349 nm, and redshift with decrease of absorbance of the band at 394 nm. […] The log β values for the formation of Zn(II) complexes with Na2H4L^1 · 5.5 H2O can be estimated (Table 4), and a representative distribution diagram is reported in Figure S27.
The spectra are characterized by four bands at ca. 238, 255, 305, and 371 nm, with those at 255 and 371 nm increasing in intensity with the addition of metal ions. The presence of these separated absorption bands led to the observation of three apparent isosbestic points at 243, 276, and 345 nm. Analogously to the Zn(II)/bis-thiocarbohydrazone system, the best fit was obtained using a speciation model that consists of the sequential formation of a monometallic [ZnL] and a bimetallic [Zn2L] species. In Figure 8, the absorbance values at 307 nm as a function of the equivalents of added Zn(II) are reported. The absorbance trend presents two almost linear regions between 0 and 1 eq. of Zn(II) and between 1 and 2 eq., respectively. This is, in fact, consistent with the sequential formation of two species with Zn:L ratios of 1:1 and 2:1, respectively. […] This behaviour is, perhaps, to be expected, taking into account the softer nature of the thiocarbohydrazonic group.
Samples used for the study of protonation equilibria of the ligands were prepared as follows. […] For each solution, the absorption spectrum was collected in the 220–600 nm range at 298.2 K. The spectral data collection was carried out immediately after the preparation of the samples and repeated after 3 and 10 min for all the samples at different pH values to check the stability of the ligand. […] The complex formation equilibria at pH 2.5 or 7.4 of bis-TCH and bis-CH with Cu(II) and Zn(II) ions were studied by direct spectrophotometric titrations of solutions of the ligands with the metal ions, and the samples were prepared as follows. Appropriate aliquots of the stock solutions of the ligands were diluted in a quartz cuvette of 1 cm path length using HEPES buffer (pH 7.4) or by adding HCl aqueous solution (pH 2.5) to obtain ca. 17 µM ligand solutions in a total volume of 2.6 mL. The obtained ligand solutions were titrated with Cu(II) or Zn(II) titrant solutions (ca. 442 µM) up to a metal/ligand ratio of 3 for the studies at pH 7.4 and up to a Cu(II):ligand ratio of 5 (for Na2H4L^1 · 5.5 H2O) and 7 (for Na2H4L^2 · 5 H2O) for the studies at pH 2.5. […]
as §1

For the compound `COc1cc(S(=O)(=O)[O-])cc(/C=N/NC(=O)N/N=C/c2cc(S(=O)(=O)[O-])cc(OC)c2O)c1O.[Na+].[Na+]` [bis-CH, Bis-(sodium 3-methoxy-5-sulfonate-salicylaldehyde)-carbohydrazone], in data set [1], the “Log β([Cu2L])” value is 11.30(2) and the “Log β([CuL])” value was 6.26(2). In data set [2], the “Log β([Zn2L])” value is 13.61(4) and the “Log β([ZnL])” value is recorded as 7.08(3).
For the compound `COc1cc(S(=O)(=O)[O-])cc(/C=N/NC(=S)N/N=C/c2cc(S(=O)(=O)[O-])cc(OC)c2O)c1O.[Na+].[Na+]` [bis-TCH, Bis-(sodium 3-methoxy-5-sulfonate-salicylaldehyde)-thiocarbohydrazone], in data set [1], the “Log β([Cu3L2])” value is reported as 26.4(1) and the “Log β([Cu3L4])” value is 38.6(1). For the same compound, in data set [2], the “Log β([Zn2L])” value was 15.29(10) and the “Log β([ZnL])” value is 8.40(6). In data set [2] (pH 7.4, [ZnL] and [Zn2L]), the “higher stability of Zn(II) complexes versus Na2H4L^2 · 5 H2O (difference in log β, both species)” value was “ca. 1.5 log units”.
